In ChEMBL document CHEMBL1201861, “Genomics of Drug Sensitity in Cancer screening data, Wellcome Trust Sanger Institute”:
pIC50: −log10 of the molar value.

Assays:
Assay in all cases: cells
[1] = tested on: SK-PN-DW; assay type: functional, cell-based; conditions: Homo sapiens;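 further: growth inhibition measured with a viability assay on these cells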
Description: SANGER: Inhibition of human SK-PN-DW cell growth in a cell viability assay.

[2] = tested on: RERF-LC-MS; assay type: functional, cell-based, Homo sapiens; conditions: Homo sapiens, RERF-LC-MS;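 further: growth inhibition of human RERF-LC-MS cells, read out by a cell viability assay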
Description: SANGER: Inhibition of human RERF-LC-MS cell growth in a cell viability assay.

[3] = tested on: HLE; assay type: functional, cell-based, Homo sapiens; conditions: Homo sapiens, HLE;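 further: growth inhibition of human HLE cells, read out by a cell viability assay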
Description: SANGER: Inhibition of human HLE cell growth in a cell viability assay.

[4] = tested on: JAR; assay type: functional, cell-based, Homo sapiens; conditions: Homo sapiens, JAR;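 further: growth inhibition of human JAR cells determined with a cell viability assay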
Description: SANGER: Inhibition of human JAR cell growth in a cell viability assay.

[5] = tested on: NCI-H226; assay type: functional, cell-based, Homo sapiens; conditions: Homo sapiens, NCI-H226;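 further: cell viability read-out used to gauge growth inhibition of the cells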
Description: SANGER: Inhibition of human NCI-H226 cell growth in a cell viability assay.

[6] = tested on: CAPAN-1; assay type: functional, cell-based, Homo sapiens; conditions: Homo sapiens, CAPAN-1;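 further: growth suppression of CAPAN-1 cells, read out by a cell viability assay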
Description: SANGER: Inhibition of human CAPAN-1 cell growth in a cell viability assay.

[7] = tested on: DOK; assay type: functional, cell-based, Homo sapiens; conditions: Homo sapiens, DOK;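 further: cell viability assay read-out, values reflect inhibition of cell growth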
Description: SANGER: Inhibition of human DOK cell growth in a cell viability assay.

[8] = tested on: KU-19-19; assay type: functional, cell-based, Homo sapiens; conditions: Homo sapiens, KU-19-19
Description: SANGER: Inhibition of human KU-19-19 cell growth in a cell viability assay.

[9] = tested on: COLO-679; assay type: functional, cell-based, Homo sapiens; conditions: Homo sapiens, COLO-679
Description: SANGER: Inhibition of human COLO-679 cell growth in a cell viability assay.

[10] = tested on: EW-1; assay type: functional, cell-based, Homo sapiens; conditions: Homo sapiens, EW-1;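 further: growth inhibition of the human EW-1 cell line, read out by a cell viability assay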
Description: SANGER: Inhibition of human EW-1 cell growth in a cell viability assay.

[11] = tested on: ETK-1; assay type: functional, cell-based, Homo sapiens; conditions: Homo sapiens, ETK-1;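 further: growth inhibition of human ETK-1 cells, read out with a cell viability assay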
Description: SANGER: Inhibition of human ETK-1 cell growth in a cell viability assay.

[12] = tested on: RKO; assay type: functional, cell-based, Homo sapiens; conditions: Homo sapiens, RKO;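 further: growth inhibition of human RKO cells, read out with a cell viability assay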
Description: SANGER: Inhibition of human RKO cell growth in a cell viability assay.

[13] = tested on: ACHN; assay type: functional, cell-based, Homo sapiens; conditions: Homo sapiens, ACHN;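 further: cell viability read-out used to gauge how strongly growth of human ACHN cells is suppressed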
Description: SANGER: Inhibition of human ACHN cell growth in a cell viability assay.

[14] = tested on: SH-4; assay type: functional, cell-based, Homo sapiens; conditions: Homo sapiens, SH-4;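 further: growth inhibition of SH-4 cells, read out with a cell viability assay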
Description: SANGER: Inhibition of human SH-4 cell growth in a cell viability assay.

[15] = tested on: RMG-I; assay type: functional, cell-based, Homo sapiens; conditions: Homo sapiens, RMG-I;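 further: growth inhibition of human RMG-I cells, read out with a cell viability assay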
Description: SANGER: Inhibition of human RMG-I cell growth in a cell viability assay.

[16] = tested on: CP50-MEL-B; assay type: functional, cell-based, Homo sapiens; conditions: Homo sapiens, CP50-MEL-B;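 further: growth inhibition of the human cell line, measured with a cell viability read-out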
Description: SANGER: Inhibition of human CP50-MEL-B cell growth in a cell viability assay.

[17] = tested on: 639-V; assay type: functional, cell-based, Homo sapiens; conditions: Homo sapiens, 639-V;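 further: growth inhibition of 639-V cells, read out with a cell viability assay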
Description: SANGER: Inhibition of human 639-V cell growth in a cell viability assay.

[18] = tested on: SW684; assay type: functional, cell-based, Homo sapiens; conditions: Homo sapiens, SW684;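 further: growth inhibition of human SW684 cells, measured by a cell viability assay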
Description: SANGER: Inhibition of human SW684 cell growth in a cell viability assay.

[19] = tested on: L-428; assay type: functional, cell-based; conditions: Homo sapiens
Description: SANGER: Inhibition of human L-428 cell growth in a cell viability assay.

[20] = tested on: DEL; assay type: functional, cell-based; conditions: Homo sapiens;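 further: growth inhibition of the human DEL cell line, read out with a cell viability assay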
Description: SANGER: Inhibition of human DEL cell growth in a cell viability assay.

[21] = tested on: EW-18; assay type: functional, cell-based; conditions: Homo sapiens;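 further: growth inhibition of EW-18 cells, read out by a cell viability assay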
Description: SANGER: Inhibition of human EW-18 cell growth in a cell viability assay.

[22] = tested on: HCC2157; assay type: functional, cell-based; conditions: Homo sapiens;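 further: growth inhibition of the cancer cell line, read out as cell viability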
Description: SANGER: Inhibition of human HCC2157 cell growth in a cell viability assay.

[23] = tested on: TGW; assay type: functional, cell-based; conditions: Homo sapiens;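 further: growth inhibition of human TGW cells, read out with a cell viability assay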
Description: SANGER: Inhibition of human TGW cell growth in a cell viability assay.

[24] = tested on: T98G; assay type: functional, cell-based, Homo sapiens; conditions: Homo sapiens, T98G;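 further: growth inhibition of T98G cells, read out by a cell viability assay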
Description: SANGER: Inhibition of human T98G cell growth in a cell viability assay.

[25] = tested on: UACC-893; assay type: functional, cell-based, Homo sapiens; conditions: Homo sapiens, UACC-893
Description: SANGER: Inhibition of human UACC-893 cell growth in a cell viability assay.

[26] = tested on: SK-MEL-1; assay type: functional, cell-based; conditions: Homo sapiens;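 further: growth inhibition of human SK-MEL-1 cells, read out by a cell viability assay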
Description: SANGER: Inhibition of human SK-MEL-1 cell growth in a cell viability assay.

[27] = tested on: NCI-H1838; assay type: functional, cell-based, Homo sapiens; conditions: Homo sapiens, NCI-H1838;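 further: growth inhibition of NCI-H1838 cells, determined with a cell viability readout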
Description: SANGER: Inhibition of human NCI-H1838 cell growth in a cell viability assay.

[28] = tested on: SW1710; assay type: functional, cell-based, Homo sapiens; conditions: Homo sapiens, SW1710;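 further: growth inhibition of SW1710 cells, determined with a cell viability assay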
Description: SANGER: Inhibition of human SW1710 cell growth in a cell viability assay.

[29] = tested on: BCPAP; assay type: functional, cell-based, Homo sapiens; conditions: Homo sapiens, BCPAP;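 further: growth inhibition of BCPAP cells, read out in a cell viability assay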
Description: SANGER: Inhibition of human BCPAP cell growth in a cell viability assay.

[30] = tested on: NCI-H727; assay type: functional, cell-based, Homo sapiens; conditions: Homo sapiens, NCI-H727;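 further: growth inhibition of human NCI-H727 cells, read out with a cell viability assay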
Description: SANGER: Inhibition of human NCI-H727 cell growth in a cell viability assay.

[31] = tested on: SF-539; assay type: functional, cell-based, Homo sapiens; conditions: Homo sapiens, SF-539;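 further: Read-out is a cell viability assay, with IC50 reflecting inhibition of cell growth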
Description: SANGER: Inhibition of human SF539 cell growth in a cell viability assay.

[32] = tested on: LS-513; assay type: functional, cell-based, Homo sapiens; conditions: Homo sapiens, LS-513
Description: SANGER: Inhibition of human LS-513 cell growth in a cell viability assay.

[33] = tested on: CAL-54; assay type: functional, cell-based, Homo sapiens; conditions: Homo sapiens, CAL-54;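 further: growth inhibition of CAL-54 cells, read out by a viability measurement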
Description: SANGER: Inhibition of human CAL-54 cell growth in a cell viability assay.

[34] = tested on: TE-11; assay type: functional, cell-based, Homo sapiens; conditions: Homo sapiens, TE-11;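 further: growth inhibition of human TE-11 cells, read out by a cell viability assay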
Description: SANGER: Inhibition of human TE-11 cell growth in a cell viability assay.

[35] = tested on: NOS-1; assay type: functional, cell-based, Homo sapiens; conditions: Homo sapiens, NOS-1;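 further: growth inhibition of the human NOS-1 cell line, read out with a cell viability assay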
Description: SANGER: Inhibition of human NOS-1 cell growth in a cell viability assay.

[36] = tested on: T-24; assay type: functional, cell-based, Homo sapiens; conditions: Homo sapiens, T-24;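 further: growth inhibition of T-24 cells, read out with a cell viability assay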
Description: SANGER: Inhibition of human T-24 cell growth in a cell viability assay.

[37] = tested on: HEC-1; assay type: functional, cell-based, Homo sapiens; conditions: Homo sapiens, HEC-1;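 further: growth inhibition of the cell line, read out with a cell viability assay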
Description: SANGER: Inhibition of human HEC-1 cell growth in a cell viability assay.

[38] = tested on: UACC-62; assay type: functional, cell-based, Homo sapiens; conditions: Homo sapiens, UACC-62;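 further: growth inhibition of human UACC-62 cells, read out by a cell viability assay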
Description: SANGER: Inhibition of human UACC-62 cell growth in a cell viability assay.

[39] = tested on: MKN-45; assay type: functional, cell-based, Homo sapiens; conditions: Homo sapiens, MKN-45;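 further: growth inhibition of human MKN-45 cells, measured with a cell viability assay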
Description: SANGER: Inhibition of human MKN45 cell growth in a cell viability assay.

[40] = tested on: MZ2-MEL; assay type: functional, cell-based, Homo sapiens; conditions: Homo sapiens, MZ2-MEL;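 further: growth inhibition of MZ2-MEL cells read out with a cell viability assay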
Description: SANGER: Inhibition of human MZ2-MEL cell growth in a cell viability assay.

[41] = tested on: MEL-HO; assay type: functional, cell-based, Homo sapiens; conditions: Homo sapiens, MEL-HO
Description: SANGER: Inhibition of human MEL-HO cell growth in a cell viability assay.

[42] = tested on: S-117; assay type: functional, cell-based, Homo sapiens; conditions: Homo sapiens, S-117
Description: SANGER: Inhibition of human S-117 cell growth in a cell viability assay.

[43] = tested on: Daoy; assay type: functional, cell-based, Homo sapiens; conditions: Homo sapiens, Daoy;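 further: daoy cell growth inhibition, read out as cell viability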
Description: SANGER: Inhibition of human Daoy cell growth in a cell viability assay.

[44] = tested on: NUGC-3; assay type: functional, cell-based, Homo sapiens; conditions: Homo sapiens, NUGC-3;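 further: growth inhibition of human NUGC-3 cells, read out with a cell viability assay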
Description: SANGER: Inhibition of human NUGC-3 cell growth in a cell viability assay.

[45] = tested on: DOHH-2; assay type: functional, cell-based; conditions: Homo sapiens;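 further: growth inhibition of human DOHH-2 cells, read out with a cell viability assay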
Description: SANGER: Inhibition of human DOHH-2 cell growth in a cell viability assay.

[46] = tested on: SNU-C2B; assay type: functional, cell-based, Homo sapiens; conditions: Homo sapiens, SNU-C2B;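 further: cell viability readout used to measure compound-driven suppression of SNU-C2B cell proliferation, IC50 marking half-maximal growth inhibition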
Description: SANGER: Inhibition of human SNU-C2B cell growth in a cell viability assay.

[47] = tested on: GCIY; assay type: functional, cell-based, Homo sapiens; conditions: Homo sapiens, GCIY;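 further: growth inhibition of the human GCIY cell line, read out by a cell viability assay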
Description: SANGER: Inhibition of human GCIY cell growth in a cell viability assay.

[48] = tested on: SW48; assay type: functional, cell-based, Homo sapiens; conditions: Homo sapiens, SW48;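 further: growth inhibition of SW48 cells, read out with a cell viability assay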
Description: SANGER: Inhibition of human SW48 cell growth in a cell viability assay.

[49] = tested on: HuO-3N1; assay type: functional, cell-based, Homo sapiens; conditions: Homo sapiens, HuO-3N1;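 further: cell viability readout used to measure how strongly compounds suppress proliferation of human HuO-3N1 cells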
Description: SANGER: Inhibition of human HuO-3N1 cell growth in a cell viability assay.

[50] = tested on: SW756; assay type: functional, cell-based, Homo sapiens; conditions: Homo sapiens, SW756;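 further: growth inhibition of human SW756 cells, read out with a cell viability assay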
Description: SANGER: Inhibition of human SW756 cell growth in a cell viability assay.

Question: With CCOc1nc(NC(=O)Cc2cc(OC)ccc2OC)cc(N)c1C#N as the compound, how does the pIC50 [1] read?
Answer: < 5.00

Question: And the pIC50 [2]?
Answer: < 5.00

Question: And the pIC50 [3]?
Answer: < 5.00

Question: And the pIC50 [4]?
Answer: < 5.00

Question: And the pIC50 [5]?
Answer: < 5.00

Question: And the pIC50 [6]?
Answer: < 5.00

Question: And the pIC50 [7]?
Answer: < 5.00

Question: And the pIC50 [8]?
Answer: < 5.00

Question: What about the pIC50 [9] of the same compound?
Answer: < 5.00

Question: And the pIC50 [10]?
Answer: < 5.00

Question: And the pIC50 [11]?
Answer: < 5.00

Question: What about the pIC50 [12] of the same compound?
Answer: < 5.00

Question: What about the pIC50 [13] of the same compound?
Answer: < 5.00

Question: And the pIC50 [14]?
Answer: < 5.00

Question: And the pIC50 [15]?
Answer: < 5.00

Question: And the pIC50 [16]?
Answer: < 5.00

Question: And the pIC50 [17]?
Answer: < 5.00

Question: And the pIC50 [18]?
Answer: < 5.00

Question: And the pIC50 [19]?
Answer: < 5.00

Question: What about the pIC50 [20] of the same compound?
Answer: < 5.00

Question: What about the pIC50 [21] of the same compound?
Answer: < 5.00

Question: What about the pIC50 [22] of the same compound?
Answer: < 5.00

Question: What about the pIC50 [23] of the same compound?
Answer: < 5.00

Question: And the pIC50 [24]?
Answer: < 5.00

Question: What about the pIC50 [25] of the same compound?
Answer: < 5.00

Question: What about the pIC50 [26] of the same compound?
Answer: < 5.00

Question: And the pIC50 [27]?
Answer: < 5.00

Question: What about the pIC50 [28] of the same compound?
Answer: < 5.00

Question: And the pIC50 [29]?
Answer: < 5.00

Question: And the pIC50 [30]?
Answer: < 5.00

Question: And the pIC50 [31]?
Answer: < 5.00

Question: And the pIC50 [32]?
Answer: < 5.00

Question: What about the pIC50 [33] of the same compound?
Answer: < 5.00

Question: And the pIC50 [34]?
Answer: < 5.00

Question: And the pIC50 [35]?
Answer: < 5.00

Question: And the pIC50 [36]?
Answer: < 5.00

Question: What about the pIC50 [37] of the same compound?
Answer: < 5.00

Question: What about the pIC50 [38] of the same compound?
Answer: < 5.00

Question: And the pIC50 [39]?
Answer: < 5.00

Question: What about the pIC50 [40] of the same compound?
Answer: < 5.00

Question: And the pIC50 [41]?
Answer: < 5.00

Question: What about the pIC50 [42] of the same compound?
Answer: < 5.00

Question: And the pIC50 [43]?
Answer: < 5.00

Question: And the pIC50 [44]?
Answer: < 5.00

Question: And the pIC50 [45]?
Answer: < 5.00

Question: And the pIC50 [46]?
Answer: < 5.00

Question: And the pIC50 [47]?
Answer: < 5.00

Question: What about the pIC50 [48] of the same compound?
Answer: < 5.00

Question: What about the pIC50 [49] of the same compound?
Answer: < 5.00

Question: What about the pIC50 [50] of the same compound?
Answer: < 5.00

Question: O=C1N=C(NCc2cccs2)S/C1=C\c1ccc2ncccc2c1 was tested. Which pIC50 [1] did it give?
Answer: < 5.30

Question: What about the pIC50 [2] of the same compound?
Answer: < 5.30

Question: And the pIC50 [3]?
Answer: < 5.30

Question: And the pIC50 [4]?
Answer: < 5.30

Question: And the pIC50 [5]?
Answer: < 5.30

Question: What about the pIC50 [6] of the same compound?
Answer: < 5.30

Question: What about the pIC50 [7] of the same compound?
Answer: < 5.30

Question: What about the pIC50 [8] of the same compound?
Answer: < 5.30

Question: And the pIC50 [9]?
Answer: < 5.30

Question: What about the pIC50 [10] of the same compound?
Answer: < 5.30

Question: What about the pIC50 [11] of the same compound?
Answer: < 5.30

Question: And the pIC50 [12]?
Answer: < 5.30

Question: And the pIC50 [13]?
Answer: < 5.30

Question: And the pIC50 [14]?
Answer: < 5.30

Question: And the pIC50 [15]?
Answer: < 5.30

Question: And the pIC50 [16]?
Answer: < 5.30

Question: What about the pIC50 [17] of the same compound?
Answer: 5.64

Question: What about the pIC50 [18] of the same compound?
Answer: < 5.30

Question: And the pIC50 [19]?
Answer: < 5.30

Question: And the pIC50 [20]?
Answer: < 5.30

Question: And the pIC50 [21]?
Answer: < 5.30

Question: What about the pIC50 [22] of the same compound?
Answer: < 5.30

Question: What about the pIC50 [23] of the same compound?
Answer: < 5.30

Question: What about the pIC50 [24] of the same compound?
Answer: 5.86

Question: What about the pIC50 [25] of the same compound?
Answer: < 5.30

Question: And the pIC50 [26]?
Answer: < 5.30

Question: And the pIC50 [27]?
Answer: < 5.30

Question: What about the pIC50 [28] of the same compound?
Answer: 5.79

Question: What about the pIC50 [29] of the same compound?
Answer: < 5.30

Question: And the pIC50 [30]?
Answer: < 5.30

Question: What about the pIC50 [31] of the same compound?
Answer: < 5.30

Question: And the pIC50 [32]?
Answer: < 5.30

Question: What about the pIC50 [33] of the same compound?
Answer: < 5.30

Question: And the pIC50 [34]?
Answer: < 5.30

Question: What about the pIC50 [35] of the same compound?
Answer: < 5.30

Question: What about the pIC50 [36] of the same compound?
Answer: < 5.30

Question: And the pIC50 [37]?
Answer: < 5.30

Question: And the pIC50 [38]?
Answer: < 5.30

Question: What about the pIC50 [39] of the same compound?
Answer: < 5.30

Question: What about the pIC50 [40] of the same compound?
Answer: < 5.30

Question: What about the pIC50 [41] of the same compound?
Answer: < 5.30

Question: What about the pIC50 [42] of the same compound?
Answer: < 5.30

Question: What about the pIC50 [43] of the same compound?
Answer: < 5.30

Question: What about the pIC50 [44] of the same compound?
Answer: < 5.30

Question: And the pIC50 [45]?
Answer: < 5.30

Question: What about the pIC50 [46] of the same compound?
Answer: < 5.30

Question: What about the pIC50 [47] of the same compound?
Answer: < 5.30

Question: What about the pIC50 [48] of the same compound?
Answer: < 5.30

Question: What about the pIC50 [49] of the same compound?
Answer: < 5.30

Question: And the pIC50 [50]?
Answer: < 5.30
